The source of these data is patent publication US8309550B2, “Kinase inhibitors and their use as pharmaceutical agents” (Shanghai Genomics, Inc., priority 2011, dated 2012).

The subject of this experiment is Xenograft tumor models (HT-29, H460, Molt-4, PC-3M, HL60). The experiment can be described thus: Xenograft studies with human tumor cell lines. It is filed as in vivo, BALB/c nude mice. Conditions: i.p, qd, 21 days, dosage from 12.5 mg/kg to 100 mg/kg; significant with p<0.05 (T-test). As for the experimental part:
Female BALB/c nude mice from SHANGHAI SLAC LABORATORY ANIMAL CO with age of 5 to 6 weeks and body weight of 19 to 20 g were used in the study. Autoclaved water and irradiated food were provided ad libitum, and animals were maintained on a 12-hour light and 12-hour dark cycle. Cages, bedding, and water bottles were autoclaved before use and changed weekly. The health of all animals was determined by daily gross observation of experimental animals, and analyses of blood samples of sentinel animals housed on shared shelf racks. All animals were allowed to acclimate and recover from any shipping-related stress for a minimum of 72 hours before experimental use. All animal experiments were conducted according to the guidelines of Chinese.
Xenograft tumor models were established with human tumor cell lines. […] Tumor growth was monitored twice per week until the tumor reached to a volume of 100 mm^3. […]
Mortality checks were conducted daily. Body weight of the mice was determined twice a week. […] Weight loss was calculated as percentage change in mean group body weight using the following formula: [(W−W0)/W0]×100, where ‘W’ represents mean body weight of the treated group at a particular day and ‘W0’ represents mean body weight of the same treated group at initiation of treatment. Tumor volumes (in mm3) were calculated after 21 days drug administration. […]

With `CCCn1cc(-c2ccnc(Nc3ccc(C)c(S(=O)(=O)N4CCOCC4)c3)n2)c2ccncc21` [Compound 102, N-(4-Methyl-3-(morpholinosulfonyl)phenyl)-4-(1-propyl-1H-pyrrolo[2,3-c]pyridin-3-yl)pyrimidin-2-amine], the “anti-tumor activities in xenograft mice” value is given as “showed anti-tumor activities”.
